The assay has as its system LNCaP cells having the androgen receptor. Description: Androgen receptor inhibition assay (LNCaP cell viability, WST-1). The conditions noted are these: Homo sapiens, 48 h, read-out: Cell viability (%). How it is done:
The human prostate cancer cell line LNCaP cells were acquired from the American Type Culture Collection (Manassas, Va., USA) and cultured for 24 hours in RPMI 1640 medium containing 10% fetal bovine serum (FBS) and 2 mM 1-glutamine in an incubator maintained at 5% CO2 and 37° C.
Cell viability of the cultured cells was measured using the WST-1 reagent.
For orientation: Tetrazolium dyes change colour on reduction, which living cells bring about.

As to `C[C@]12CCC(=O)C[C@@H]1CC[C@@H]1[C@@H]2CC[C@]2(C)[C@@H](O)CC[C@@H]12` [DHT, dihydrotestosterone], the viability (usually a read-out of living cells in per cent, often relative to untreated cells) at 0.001 µM is 119%.

(Values after patent US9161900B2, “Cosmetic composition for inhibiting hair loss and enhanced hair growth” (AMOREPACIFIC CORPORATION, priority 2011, dated 2015).)
